≈ marks a conversion by molar mass, not a printed value. Where only a bound is given, the exact number is not on record here.

One may read the Ki as a measure of affinity in units of concentration, obtained from inhibition or displacement. By IC50 is commonly meant the concentration that inhibits the measured activity by half. Usually solubility stands for the dissolved amount per volume that the medium holds. High values mean a readily soluble substance, low ones a poorly soluble substance. As a reminder, the bioavailability is dose-corrected exposure relative to a reference, in per cent. A high value points to good availability. A word on the Vd: it is a proportionality between amount in the body and measured concentration, not a real space. Low readings indicate little distribution into tissue, high ones wide distribution into tissue. As a reminder, the half-life is the time in which the quantity being followed falls by half. A low value points to fast loss. What is called clearance is a measure of how efficiently the substance is removed, as volume per time. The low end stands for a low capacity for elimination, the high end for a high capacity for elimination.

For data set [1], the target named is T1, Adenosine receptor A2a (Homo sapiens, UniProt P29274). The data set is described as follows: Displacement of [3H]ZM-241385 from human adenosine A2A receptor expressed in HEK293 cells. It counts as cell-based.
T1 sequence (P29274 whole entry): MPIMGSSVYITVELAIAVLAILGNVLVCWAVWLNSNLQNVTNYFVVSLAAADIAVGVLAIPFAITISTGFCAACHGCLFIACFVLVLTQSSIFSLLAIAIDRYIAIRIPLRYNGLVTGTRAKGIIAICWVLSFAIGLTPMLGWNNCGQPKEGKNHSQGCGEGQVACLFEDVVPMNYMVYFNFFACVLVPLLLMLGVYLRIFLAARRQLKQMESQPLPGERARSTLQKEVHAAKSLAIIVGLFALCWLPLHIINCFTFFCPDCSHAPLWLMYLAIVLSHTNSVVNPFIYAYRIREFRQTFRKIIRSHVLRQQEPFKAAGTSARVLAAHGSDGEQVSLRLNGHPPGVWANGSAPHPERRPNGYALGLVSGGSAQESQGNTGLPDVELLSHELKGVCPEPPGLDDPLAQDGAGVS
Data set [2] addresses T2, Adenosine receptor A1 (Homo sapiens, UniProt P30542).
T2 sequence (P30542 whole entry): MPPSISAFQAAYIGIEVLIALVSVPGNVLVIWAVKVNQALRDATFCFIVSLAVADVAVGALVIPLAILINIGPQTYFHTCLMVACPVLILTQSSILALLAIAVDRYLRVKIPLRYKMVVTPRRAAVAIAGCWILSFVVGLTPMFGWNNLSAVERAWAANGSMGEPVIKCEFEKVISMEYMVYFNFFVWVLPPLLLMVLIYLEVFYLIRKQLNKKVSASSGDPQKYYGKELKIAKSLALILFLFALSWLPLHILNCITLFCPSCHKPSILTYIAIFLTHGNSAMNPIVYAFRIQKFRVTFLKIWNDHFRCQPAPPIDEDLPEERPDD
As to the kind of experiment: Displacement of [3H]DPCPX from human adenosine A1 receptor expressed in HEK293 cells. It counts as cell-based. In general terms: Displacement assays read how much labelled ligand stays bound in the presence of the test substance.

In the next data set the target is Cytochrome P450 3A4 (Homo sapiens, UniProt P08684). As to the kind of experiment: Inhibition of CYP3A4. It counts as ADME.
Sequence of Cytochrome P450 3A4 (P08684 whole entry): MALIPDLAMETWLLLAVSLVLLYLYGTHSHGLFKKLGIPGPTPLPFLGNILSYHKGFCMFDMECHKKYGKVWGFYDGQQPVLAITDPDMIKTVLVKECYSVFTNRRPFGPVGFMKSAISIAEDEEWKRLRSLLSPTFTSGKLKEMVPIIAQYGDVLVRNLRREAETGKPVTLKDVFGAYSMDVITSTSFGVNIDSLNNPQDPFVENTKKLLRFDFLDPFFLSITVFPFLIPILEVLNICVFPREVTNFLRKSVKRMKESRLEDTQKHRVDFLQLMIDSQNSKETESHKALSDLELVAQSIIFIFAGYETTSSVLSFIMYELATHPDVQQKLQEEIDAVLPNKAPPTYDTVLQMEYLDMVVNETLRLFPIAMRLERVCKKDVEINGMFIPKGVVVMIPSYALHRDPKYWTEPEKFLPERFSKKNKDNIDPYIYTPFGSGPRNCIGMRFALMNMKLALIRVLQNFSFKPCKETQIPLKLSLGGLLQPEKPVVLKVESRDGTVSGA
A further data set is filed under the species Homo sapiens. The data set is described as follows: Selectivity of Ki for human adenosine A2A receptor over Ki for human adenosine A1 receptor.
Data set [3] deals with T1, Adenosine receptor A2a. As to the kind of experiment: Binding affinity at adenosine A2A receptor.
Data set [4] addresses T2, Adenosine receptor A1. As to the kind of experiment: Binding affinity at adenosine A1 receptor.
The nature of data set [5]: Solubility at pH 5. It counts as physicochemical. As to conditions: buffer.
In data set [6] the target is Voltage-gated inwardly rectifying potassium channel KCNH2 (Homo sapiens, UniProt Q12809). The data set is described as follows: Binding affinity at human ERG.
Sequence of Voltage-gated inwardly rectifying potassium channel KCNH2 (Q12809 whole entry): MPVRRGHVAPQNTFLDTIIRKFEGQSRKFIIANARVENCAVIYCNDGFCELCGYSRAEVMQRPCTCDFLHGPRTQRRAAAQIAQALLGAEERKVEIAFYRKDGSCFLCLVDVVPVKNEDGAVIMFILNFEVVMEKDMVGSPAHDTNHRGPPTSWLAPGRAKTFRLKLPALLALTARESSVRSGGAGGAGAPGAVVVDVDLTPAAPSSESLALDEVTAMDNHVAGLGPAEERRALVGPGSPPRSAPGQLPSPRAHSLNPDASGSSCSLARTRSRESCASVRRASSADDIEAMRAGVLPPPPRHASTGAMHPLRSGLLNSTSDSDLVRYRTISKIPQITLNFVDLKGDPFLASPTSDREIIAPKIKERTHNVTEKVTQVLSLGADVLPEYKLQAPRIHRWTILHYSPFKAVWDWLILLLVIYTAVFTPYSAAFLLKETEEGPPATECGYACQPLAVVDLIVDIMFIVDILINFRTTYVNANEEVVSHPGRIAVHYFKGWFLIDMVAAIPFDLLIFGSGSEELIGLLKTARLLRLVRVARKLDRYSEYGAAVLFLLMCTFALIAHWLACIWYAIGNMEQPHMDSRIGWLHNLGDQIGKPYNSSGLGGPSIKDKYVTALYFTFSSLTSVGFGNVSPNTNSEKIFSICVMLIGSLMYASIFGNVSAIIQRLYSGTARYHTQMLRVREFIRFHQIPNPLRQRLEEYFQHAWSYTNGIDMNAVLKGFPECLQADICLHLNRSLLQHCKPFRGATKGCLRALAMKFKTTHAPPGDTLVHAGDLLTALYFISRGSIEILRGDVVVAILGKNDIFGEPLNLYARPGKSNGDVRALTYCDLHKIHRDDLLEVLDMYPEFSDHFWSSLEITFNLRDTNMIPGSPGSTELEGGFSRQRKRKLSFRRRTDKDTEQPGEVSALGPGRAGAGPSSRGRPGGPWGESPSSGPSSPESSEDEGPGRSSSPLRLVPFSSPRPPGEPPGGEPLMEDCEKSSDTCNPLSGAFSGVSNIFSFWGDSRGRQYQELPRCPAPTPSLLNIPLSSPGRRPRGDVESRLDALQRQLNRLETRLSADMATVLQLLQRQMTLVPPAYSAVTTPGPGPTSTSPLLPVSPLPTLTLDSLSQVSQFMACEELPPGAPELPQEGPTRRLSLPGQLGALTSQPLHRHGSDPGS
Another data set addresses Cytochrome P450 2D6 (Homo sapiens, UniProt P10635). The data set is described as follows: Inhibition of CYP2D6. It counts as ADME.
Data set [7] has as its target Adenosine receptor A2a (Rattus norvegicus, UniProt P30543). The data set is described as follows: Inhibition of rat adenosine A2A receptor.
Data set [8] is described as follows: Oral bioavailability in rat. Particulars: in vivo. It counts as ADME, organism-based.
The nature of data set [9]: Volume of distribution in rat. It counts as ADME, organism-based. Particulars: in vivo.
Data set [10] can be described thus: Half life in rat. It counts as ADME, organism-based. Particulars: in vivo.
Data set [11] in a line: Plasma clearance in rat. It counts as ADME, organism-based.
A short description of data set [12]: Drug level in rat brain after 4 hrs. It counts as ADME, tissue-based. Particulars: read-out: Drug uptake.
For the next data set, the system named is Rattus norvegicus. The data set is described as follows: Inhibition of haloperidol-induced catalepsy in orally dosed rat. It counts as functional. Particulars: po, read-out: MED.

Sequence of Cytochrome P450 2D6 (P10635 whole entry): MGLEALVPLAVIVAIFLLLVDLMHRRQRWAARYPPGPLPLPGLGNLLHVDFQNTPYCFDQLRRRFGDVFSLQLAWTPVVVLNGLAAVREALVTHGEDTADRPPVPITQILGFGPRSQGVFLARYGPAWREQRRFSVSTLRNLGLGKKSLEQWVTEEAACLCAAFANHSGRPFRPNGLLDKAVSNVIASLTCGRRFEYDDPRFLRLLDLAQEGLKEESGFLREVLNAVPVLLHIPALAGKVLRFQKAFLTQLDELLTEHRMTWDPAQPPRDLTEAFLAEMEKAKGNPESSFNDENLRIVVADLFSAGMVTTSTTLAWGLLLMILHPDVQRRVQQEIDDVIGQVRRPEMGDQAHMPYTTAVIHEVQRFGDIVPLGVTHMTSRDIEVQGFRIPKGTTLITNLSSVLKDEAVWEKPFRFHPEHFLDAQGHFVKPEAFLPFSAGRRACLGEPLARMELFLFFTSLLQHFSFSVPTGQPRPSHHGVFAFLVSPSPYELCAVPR
Sequence of Adenosine receptor A2a (Rattus norvegicus, UniProt P30543) (P30543 whole entry): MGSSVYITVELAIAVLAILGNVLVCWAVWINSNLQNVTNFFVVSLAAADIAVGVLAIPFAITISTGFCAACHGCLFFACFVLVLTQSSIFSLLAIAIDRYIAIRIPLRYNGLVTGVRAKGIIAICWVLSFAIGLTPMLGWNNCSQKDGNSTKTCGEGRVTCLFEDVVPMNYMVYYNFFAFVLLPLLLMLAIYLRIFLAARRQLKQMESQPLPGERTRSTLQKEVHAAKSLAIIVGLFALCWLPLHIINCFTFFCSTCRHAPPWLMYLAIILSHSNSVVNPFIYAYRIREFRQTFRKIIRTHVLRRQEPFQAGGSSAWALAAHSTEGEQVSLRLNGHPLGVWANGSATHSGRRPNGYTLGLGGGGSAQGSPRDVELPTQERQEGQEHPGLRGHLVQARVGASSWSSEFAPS

On to `Cc1ccc(-c2nc(NC(=O)COc3cccc(F)c3)cc(-c3nccs3)n2)o1`, for which the values for the inhibitory constant (Ki) on Adenosine receptor A2a [1] and on Adenosine receptor A1 [2] were 11 nM and 2200 nM, respectively.

For the compound `O=C(COc1cccc(F)c1)Nc1cc(-c2nccs2)nc(-c2ccccn2)n1`, the Ki is 3.6 nM at Adenosine receptor A2a [1] and 180 nM on Adenosine receptor A1 [2].

`COc1ccc(OCC(=O)Nc2cc(-n3nc(C)cc3C)nc(-c3ccc(C)o3)n2)c(CN(C)C)c1`: the Ki on Adenosine receptor A2a [1] came out at 0.9 nM; at Adenosine receptor A1 [2], 200 nM. The same compound came in with an IC50 against Cytochrome P450 3A4 of 1600 nM.

Consider `Cc1ccc(-c2nc(NC(=O)CCc3ccccc3F)cc(-c3nccs3)n2)o1`, for which the Ratio Ki in the data set listed under Homo sapiens came to 26. Besides, the values for the Ki on Adenosine receptor A2a [3] and at Adenosine receptor A1 [4] were 16 nM and 410 nM, respectively.

Turning to `COc1cc(CN(C)C)ccc1OCC(=O)Nc1cc(-n2nc(C)cc2C)nc(-c2ccc(C)o2)n1`, the results for the Ki at Adenosine receptor A2a [1] and on Adenosine receptor A1 [2] were 0.2 nM and 100 nM, respectively.

On to `Cc1cc(C)n(-c2cc(NC(=O)COc3ccc(CN(C)C)cc3)nc(-c3ccc(C)o3)n2)n1`, for which the Ki came out at 0.3 nM at Adenosine receptor A2a [1] and 120 nM on Adenosine receptor A1 [2].

Consider `Cc1cc(C)n(-c2cc(NC(=O)COc3cc(F)cc(CN(C)C)c3)nc(-c3ccc(C)o3)n2)n1`, for which the results for the Ki on Adenosine receptor A2a [1] and on Adenosine receptor A1 [2] were 0.5 nM and 140 nM, respectively.

As to `Cc1cc(C)n(-c2cc(NC(=O)COc3cccc(CCN4CCOCC4)c3)nc(-c3ccc(C)o3)n2)n1`, the Ki at Adenosine receptor A2a [1] came to 2.3 nM; at Adenosine receptor A1 [2], 540 nM.

On to `Cc1cc(C)n(-c2cc(NC(=O)COc3cccc(F)c3)nc(-c3ccc(C)o3)n2)n1`, for which the inhibition constant Ki was 3.7 nM on Adenosine receptor A2a [1] and 9700 nM on Adenosine receptor A1 [2]. Besides, the Ratio Ki in the data set filed under Homo sapiens is 2600. Besides, in data set [5], the concentration in solution (solubility) was 80 µg/mL (≈ 190 µM).

With `CCNCc1cccc(OCC(=O)Nc2cc(-n3nc(C)cc3C)nc(-c3ccc(C)o3)n2)c1`, the values for the Ki at Adenosine receptor A2a [1], at Adenosine receptor A1 [2] and on Adenosine receptor A2a [3] were 0.3 nM, 68 nM and 0.3 nM, respectively. Moreover, in the data set filed under Homo sapiens, the Ratio Ki is 100.

As to `COc1cc(OCC(=O)Nc2cc(-n3nc(C)cc3C)nc(-c3ccc(C)o3)n2)ccc1CN(C)C`, the Ki was determined as 0.3 nM at Adenosine receptor A2a [1] and 150 nM on Adenosine receptor A1 [2].

Take `Cc1cc(C)n(-c2cc(NC(=O)COc3cccc(CN)c3)nc(-c3ccc(C)o3)n2)n1`: the Ki came out at 0.7 nM on Adenosine receptor A2a [1], 73 nM at Adenosine receptor A1 [2] and 0.7 nM at Adenosine receptor A2a [3]. In addition, in the data set filed under Homo sapiens, the Ratio Ki was determined as 100.

On to `Cc1cc(C)n(-c2cc(NC(=O)COc3ccccc3CCN3CCOCC3)nc(-c3ccc(C)o3)n2)n1`, for which the Ki at Adenosine receptor A2a [1] was determined as 1.2 nM; at Adenosine receptor A1 [2], 1200 nM; in data set [6], 180 nM.

As to `N#Cc1cccc(OCC(=O)Nc2cc(-c3nccs3)nc(-c3ccccn3)n2)c1`, the inhibition constant Ki was found to be 1.8 nM at Adenosine receptor A2a [1] and 87 nM on Adenosine receptor A1 [2].

For the compound `Cc1cc(C)n(-c2cc(NC(=O)COc3cc(F)cc(CN4CCCC4)c3)nc(-c3ccc(C)o3)n2)n1`, the inhibition constant Ki on Adenosine receptor A2a [1] was 0.5 nM; on Adenosine receptor A1 [2], 120 nM.

Turning to `COc1cccc(CN(C)C)c1OCC(=O)Nc1cc(-n2nc(C)cc2C)nc(-c2ccc(C)o2)n1`, the Ki at Adenosine receptor A2a [1] turned out to be 5.7 nM; at Adenosine receptor A1 [2], 1400 nM.

For `Cc1cc(C)n(-c2cc(NC(=O)COc3cccc(C#N)c3)nc(-c3ccc(C)o3)n2)n1`, the inhibitory constant (Ki) was over 10000 nM on Adenosine receptor A2a [1] and 25000 nM at Adenosine receptor A1 [2].

As for `Cc1cc(C)nc(OCC(=O)Nc2cc(-n3nc(C)cc3C)nc(-c3ccc(C)o3)n2)n1`, the figures for the inhibition constant Ki on Adenosine receptor A2a [1] and on Adenosine receptor A1 [2] were 3.7 nM and 95 nM, respectively.

Regarding `Cc1ccc(OCC(=O)Nc2cc(-c3nccs3)nc(-c3ccc(C)o3)n2)cc1`, the inhibition constant (Ki) at Adenosine receptor A2a [1] was found to be 36 nM; at Adenosine receptor A1 [2] it was 2100 nM.

On to `Cc1cc(C)n(-c2cc(NC(=O)COc3cccc(CN4CCOCC4)c3)nc(-c3ccc(C)o3)n2)n1`, for which the Ki at Adenosine receptor A2a [1] stood at 1.2 nM; at Adenosine receptor A1 [2] it was 600 nM. The Ratio Ki in the data set filed under Homo sapiens worked out at 500.

With `Cc1cc(C)n(-c2cc(NC(=O)COc3cccc(CN(C)C)c3)nc(-c3ccc(C)o3)n2)n1`, the values for the inhibition constant (Ki) on Adenosine receptor A2a [1], at Adenosine receptor A1 [2] and at Adenosine receptor A2a [7] were 0.4 nM, 60 nM and 9.4 nM, respectively. In data set [5], this compound showed a solubility of 210 µg/mL (≈ 456 µM). Also, the concentration for half-maximal inhibition (IC50) on Cytochrome P450 3A4 and against Cytochrome P450 2D6 was over 6000 nM each time. For the same compound, the bioavailability in [8] is 19%. Further, the Vd in data set [9] was 20 L/kg. In addition, the half-life in data set [10] was 48 min. This compound showed a clearance in data set [11] of 330 mL/min/kg. Further, the concentration at 4 h in data set [12] was found to be 360 ng/g. Further, in the data set on Rattus norvegicus, the minimal effective dose was found to be 10 mg/kg.

For the compound `Cc1cc(C)n(-c2cc(NC(=O)COc3cc(F)cc(CN4CCOCC4)c3)nc(-c3ccc(C)o3)n2)n1`, the inhibition constant (Ki) came out at 1.4 nM at Adenosine receptor A2a [1] and 480 nM on Adenosine receptor A1 [2].

For `Cc1ccc(-c2nc(NC(=O)COc3ccccc3)cc(-c3nccs3)n2)o1`, the inhibitory constant (Ki) is 7.4 nM on Adenosine receptor A2a [1] and 1100 nM at Adenosine receptor A1 [2].

For the compound `Cc1ccc(-c2nc(NC(=O)COc3cccc(C#N)c3)cc(-c3nccs3)n2)o1`, the inhibition constant (Ki) at Adenosine receptor A2a [1] amounted to 6.8 nM; at Adenosine receptor A1 [2], 4300 nM.

In the case of `Cc1cc(OCC(=O)Nc2cc(-n3nc(C)cc3C)nc(-c3ccc(C)o3)n2)cc(C)n1`, the values for the inhibitory constant (Ki) at Adenosine receptor A2a [1] and at Adenosine receptor A1 [2] were 0.7 nM and 740 nM, respectively. Besides, the IC50 came to 1100 nM against Cytochrome P450 3A4 and 50 nM on Cytochrome P450 2D6.

As for `Cc1ccc(-c2nc(NC(=O)COc3ccccc3F)cc(-c3nccs3)n2)o1`, the inhibition constant (Ki) at Adenosine receptor A2a [1] was found to be 7.5 nM; at Adenosine receptor A1 [2] it was 650 nM. The Ratio Ki in the data set listed under Homo sapiens worked out at 87.

With `Cc1cc(C)n(-c2cc(NC(=O)COc3cccc(CCN(C)C)c3)nc(-c3ccc(C)o3)n2)n1`, the inhibition constant (Ki) on Adenosine receptor A2a [1] turned out to be 0.5 nM; at Adenosine receptor A1 [2] it was 78 nM.

Consider `CC(=O)Nc1cc(-n2cccn2)nc(-c2ccco2)n1`, for which, in the data set listed under Homo sapiens, the Ratio Ki turned out to be 17. Besides, at Adenosine receptor A2a [3], the inhibition constant Ki turned out to be 0.6 nM.

Regarding `Cc1cc(C)n(-c2cc(NC(=O)COc3ccccc3CN(C)C)nc(-c3ccc(C)o3)n2)n1`, the Ki on Adenosine receptor A2a [1] was 1 nM; on Adenosine receptor A1 [2], 270 nM.

As to `Cc1ccc(-c2nc(NC(=O)COc3ccc(F)cc3)cc(-c3nccs3)n2)o1`, the Ki is over 10000 nM at Adenosine receptor A2a [1] and 1300 nM at Adenosine receptor A1 [2].

With `Cc1ccc(OCC(=O)Nc2cc(-n3nc(C)cc3C)nc(-c3ccc(C)o3)n2)c(CN(C)C)c1`, the Ki was found to be 1 nM on Adenosine receptor A2a [1] and 270 nM on Adenosine receptor A1 [2].

In the case of `CCN(C)Cc1cccc(OCC(=O)Nc2cc(-n3nc(C)cc3C)nc(-c3ccc(C)o3)n2)c1`, the figures for the Ki on Adenosine receptor A2a [1], on Adenosine receptor A1 [2] and at Adenosine receptor A2a [3] were 0.3 nM, 68 nM and 0.3 nM, respectively. Moreover, the Ratio Ki in the data set listed under Homo sapiens was found to be 100.

Regarding `Cc1ccc(-c2nc(NC(=O)COc3cccc(Cl)c3)cc(-c3nccs3)n2)o1`, the values for the inhibition constant (Ki) on Adenosine receptor A2a [1] and on Adenosine receptor A1 [2] were 14 nM and 1500 nM, respectively.

(Values after ChEMBL document CHEMBL1141544, “Synthesis of N-pyrimidinyl-2-phenoxyacetamides as adenosine A2A receptor antagonists” (Bioorg Med Chem Lett, 2008).)
